Data published in US12378278B2, “Mimetics of heparin oligosaccharides” (Board of Trustees of Michigan State University, priority 2019, dated 2025).

Experiments:
[1] = biological target: FGF-2-heparin interaction (Homo sapiens, UniProt P09038); experiment: Competition SPR on the FGF-2-heparin interaction; type: binding; conditions: FGF-2 50 nM pre-mixed with compound, biotinylated heparin on SA sensor chip
Procedure: In order to gain more insights into the structure-activity relationship between heparin and FGF-2, the competition assay was performed by the Linhardt group (FIG. 4). Biotinylated heparin was immobilized on the biosensor, and 27 pseudo-hexasaccharides (10 uM) was mixed with FGF-2 (50 nM) individually. […] For IC50 measurements, biotinylated heparin was immobilized on the SA sensor chip as described above, and FGF-2 (50 nM) was pre-mixed with different concentrations of pseudo-hexasaccharides. […] According to competition SPR results, successive fully sulfated disaccharide modules are required for potent competitive activity.

[2] = biological target: FGF-2 (Homo sapiens, UniProt P09038); experiment: Direct binding to immobilized FGF-2 by surface plasmon resonance (SPR); conditions: FGF-2 immobilized on CDH sensor chip
Excerpt: FGF-2 was immobilized on CDH sensor chip surface through EDC/NHS coupling, and fully sulfated (50), O-sulfated (50z) and N-sulfated (50m) pseudo-hexasaccharides were selected as analytes. […] The SPR results correlated well with that of heparin hexasaccharides (36, 51, 52) (Chem. Eur. J. 2006, 12 (34), 8664-8686).
FGF-2 was immobilized on sensor chip by primary amine coupling reaction. The surface of a CDH sensor chip (ForteBio, Inc., Molecular Devices, USA) was activated using freshly mixed N-hydroxysuccimide (NHS; 0.05 M) and 1-(3-(dimethylamino)propyl)-ethylcarbodiimide (EDC; 0.2 M) (1/1, v/v) in water, followed by the injection of FGF-2 (50 ug/ml) in PBS buffer. The remaining active esters were quenched by ethanolamine (1.0 M). All measurements were performed using 0.01% Tween 20 PBS buffer. Aqueous NaCl (2.0 M) was employed for regeneration to achieve baseline status.

Chain of FGF-2-heparin interaction (P09038 143-288, species assumed): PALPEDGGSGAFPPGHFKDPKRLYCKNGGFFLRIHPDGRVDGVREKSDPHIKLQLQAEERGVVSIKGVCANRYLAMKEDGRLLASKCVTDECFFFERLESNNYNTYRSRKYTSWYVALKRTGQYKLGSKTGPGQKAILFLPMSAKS
Chain of FGF-2 (P09038 143-288, species assumed): as above

IC50 [1]	Compound	also measured
10.8 µM	CC(=O)NCCOC1OC(C(=O)O)C(OC2OC(CO)C(OCCC(=O)NCCOC3OC(C(=O)O)C(OC4OC(COS(=O)(=O)O)C(OCCC(=O)NCCOC5OC(C(=O)O)C(OC6OC(COS(=O)(=O)O)C(OCCC(=O)O)C(O)C6NS(=O)(=O)O)C(O)C5OS(=O)(=O)O)C(O)C4NS(=O)(=O)O)C(O)C3OS(=O)(=O)O)C(O)C2NS(=O)(=O)O)C(O)C1O (centres unmarked) [Compound 50a]	
4 µM	CC(=O)NCCOC1OC(C(=O)O)C(OC2OC(COS(=O)(=O)O)C(OCCC(=O)NCCOC3OC(C(=O)O)C(OC4OC(COS(=O)(=O)O)C(OCCC(=O)NCCOC5OC(C(=O)O)C(OC6OC(COS(=O)(=O)O)C(OCCC(=O)O)C(O)C6NS(=O)(=O)O)C(O)C5OS(=O)(=O)O)C(O)C4NS(=O)(=O)O)C(O)C3OS(=O)(=O)O)C(O)C2NC(C)=O)C(O)C1OS(=O)(=O)O (centres unmarked) [Compound 50b]	
3.5 µM	CC(=O)NCCOC1OC(C(=O)O)C(OC2OC(COS(=O)(=O)O)C(OCCC(=O)NCCOC3OC(C(=O)O)C(OC4OC(COS(=O)(=O)O)C(OCCC(=O)NCCOC5OC(C(=O)O)C(OC6OC(COS(=O)(=O)O)C(OCCC(=O)O)C(O)C6NC(C)=O)C(O)C5OS(=O)(=O)O)C(O)C4NS(=O)(=O)O)C(O)C3OS(=O)(=O)O)C(O)C2NS(=O)(=O)O)C(O)C1OS(=O)(=O)O (centres unmarked) [Compound 50r]	
	CC(=O)NCCOC1OC(C(=O)O)C(OC2OC(COS(=O)(=O)O)C(OCCC(=O)NCCOC3OC(C(=O)O)C(OC4OC(COS(=O)(=O)O)C(OCCC(=O)NCCOC5OC(C(=O)O)C(OC6OC(COS(=O)(=O)O)C(OCCC(=O)O)C(O)C6NC(C)=O)C(O)C5OS(=O)(=O)O)C(O)C4NC(C)=O)C(O)C3OS(=O)(=O)O)C(O)C2NC(C)=O)C(O)C1OS(=O)(=O)O (centres unmarked) [Compound 50z]	Kd ([2]; compound as analyte): 0.94 µM
	N-Acetamidoethyl O-(4-O-carboxyethyl-2-deoxy-2-sulfoamino-1-thio-α-D-glucopyranoside)-(1→4)-O-(6-O-carboxyl-1-thio-α-L-idopyranosiduronate)-(1→4)-O-(2-deoxy-2-sulfoamino-1-thio-α-D-glucopyranoside)-(1→4)-O-(6-O-carboxyl-1-thio-α-L-idopyranosiduronate)-(1→4)-O-(2-deoxy-2-sulfoamino-1-thio-α-D-glucopyranoside)-(1→4)-O-(6-O-carboxyl-1-thio-α-L-idopyranosiduronate) [Compound 50m]	binding to FGF-2 (in words) [2]: weak signal
